Test results reported in ChEMBL document CHEMBL2311374, “Anti-angiogenesis and immunomodulatory activities of an anti-tumor sesquiterpene bigelovin isolated from Inula helianthus-aquatica” (Eur J Med Chem, 2013).
Active and inactive are the calls of the source.

Key:
PBMC [1] = assay: Immunomodulatory effect in phytohemagglutininin-activated human PBMC assessed as inhibition of IL2 production measured after 24 hrs by ELISA; assay type: functional, cell-based
PBMC [2] = assay: Immunomodulatory effect in phytohemagglutininin-activated human PBMC assessed as inhibition of IL12 production measured after 24 hrs by ELISA; assay type: functional, cell-based
PBMC [3] = assay: Immunomodulatory effect in phytohemagglutininin-activated human PBMC assessed as inhibition of INFgamma production measured after 24 hrs by ELISA; assay type: functional, cell-based
PBMC [4] = assay: Immunomodulatory effect in phytohemagglutininin-activated human PBMC assessed as stimulation of cell proliferation at 62.5 to 250 nM measured after 72 hrs; assay type: functional, cell-based
[5] = Cytotoxicity against human HMEC1 cells at 1000 or 3000 nM measured after 12 hrs by MTT assay; assay type: cell-based; conditions: hmec-1, 12 h
Danio rerio [6] = organism: Danio rerio; assay: Anti-angiogenic activity in transgenic zebrafish Tg(fli1a:EGFP)y1 1 to 4 cell stage embryo assessed as inhibition of subintestinal vessel length measured at 25 to 100 uM after 48 hrs by fluorescent microscopy; assay type: functional, tissue-based
HMEC-1 [7] = assay: Effect on cell adhesion gene expression in TNFalpha stimulated HMEC1 cells assessed as reduction in VCAM1 mRNA level at 1000 or 3000 nM measured after 12 hrs by real-time PCR analysis; assay type: functional, Homo sapiens; design: scale not given: the % may be the effect or the level left
HMEC-1 [8] = assay: Inhibition of HMEC1 cells growth measured after 48 hrs; assay type: functional, cell-based; conditions: Homo sapiens, HMEC-1, 48 h
Danio rerio [9] = organism: Danio rerio; assay: Anti-angiogenic activity in transgenic zebrafish Tg(fli1a:EGFP)y1 1 to 4 cell stage embryo assessed as down-regulation of Ang-2 angiogenic gene expression measured after 24 hrs by real-time PCR analysis; assay type: functional
HMEC-1 [10] = assay: Inhibition of cell proliferation of HMEC1 cells assessed as [methyl-3H] thymidine incorporation measured after 48 hrs; assay type: functional, cell-based; conditions: Homo sapiens
Danio rerio [11] = organism: Danio rerio; assay: Anti-angiogenic activity in transgenic zebrafish Tg(fli1a:EGFP)y1 1 to 4 cell stage embryo assessed as inhibition of subintestinal vessels formation measured after 48 hrs by fluorescent microscopy; assay type: functional, tissue-based
PBMC [12] = assay: Cytotoxicity against human PBMC at 62.5 to 250 nM for 72 hrs by XTT assay; assay type: cell-based; conditions: 0.25 µM
HMEC-1 [13] = assay: Effect on cell adhesion gene expression in TNFalpha stimulated HMEC1 cells assessed as reduction in ICAM1 mRNA level at 1000 or 3000 nM measured after 12 hrs by real-time PCR analysis; assay type: functional, Homo sapiens; design: scale not given: the % may be the effect or the level left
HMEC-1 [14] = assay: Effect on cell adhesion gene expression in TNFalpha stimulated HMEC1 cells assessed as reduction in ICAM1 protern expression at 1000 or 3000 nM measured after 24 hrs by Western blotting; assay type: functional, cell-based; conditions: Homo sapiens
Danio rerio [15] = organism: Danio rerio; assay: Anti-angiogenic activity in transgenic zebrafish Tg(fli1a:EGFP)y1 1 to 4 cell stage embryo assessed as down-regulation of Tie-2 angiogenic gene expression measured after 24 hrs by real-time PCR analysis; assay type: functional
HMEC-1 [16] = assay: Inhibition of HMEC1 cells growth measured after 48 hrs by MTT assay; assay type: functional, cell-based; conditions: Homo sapiens, HMEC-1, 48 h
[17] = Cytotoxicity against human HMEC1 cells; assay type: cell-based; conditions: hmec-1
Danio rerio [18] = organism: Danio rerio; assay: Anti-angiogenic activity in transgenic zebrafish Tg(fli1a:EGFP)y1 1 to 4 cell stage embryo assessed as down-regulation of Ang-1 angiogenic gene expression measured after 24 hrs by real-time PCR analysis; assay type: functional
HMEC-1 [19] = assay: Effect on cell adhesion gene expression in TNFalpha stimulated HMEC1 cells assessed as reduction in VCAM1 protern expression at 1000 or 3000 nM measured after 24 hrs by Western blotting; assay type: functional, cell-based; conditions: Homo sapiens
HMEC-1 [20] = assay: Antimigratory activity against HMEC1 cells assessed as decrease in cell motility measured after 24 hrs by scratch wound assay; assay type: functional, cell-based; conditions: Homo sapiens
PBMC [21] = assay: Immunomodulatory effect in phytohemagglutininin-activated human PBMC assessed as inhibition of TNFalpha production measured after 24 hrs by ELISA; assay type: functional, cell-based
Danio rerio [22] = organism: Danio rerio; assay: Anti-angiogenic activity in transgenic zebrafish Tg(fli1a:EGFP)y1 1 to 4 cell stage embryo assessed as complete inhibition of subintestinal vessels formation measured at 100 uM after 48 hrs by fluorescent microscopy; assay type: functional, tissue-based
Danio rerio [23] = organism: Danio rerio; assay: Anti-angiogenic activity in transgenic zebrafish Tg(fli1a:EGFP)y1 1 to 4 cell stage embryo assessed as down-regulation of Tie-1 angiogenic gene expression measured after 24 hrs by real-time PCR analysis; assay type: functional
HMEC-1 [24] = assay: Effect on cell adhesion gene expression in TNFalpha stimulated HMEC1 cells assessed as reduction in E-selectin mRNA level at 1000 or 3000 nM measured after 12 hrs by real-time PCR analysis; assay type: functional, Homo sapiens; design: scale not given: the % may be the effect or the level left
HMEC-1 [25] = assay: Effect on cell adhesion gene expression in TNFalpha stimulated HMEC1 cells assessed as reduction in E-selectin protern expression at 1000 or 3000 nM measured after 24 hrs by Western blotting; assay type: functional, cell-based; conditions: Homo sapiens

C=C1C(=O)O[C@H]2C[C@@H](C)[C@@H]3C=CC(=O)[C@@]3(C)[C@@H](OC(C)=O)[C@H]12 [BIGELOVIN]
active: inhibition (PBMC [1]) Dose-dependent effect | inhibition (PBMC [2]) Dose-dependent effect | inhibition (PBMC [3]) Dose-dependent effect | Activity (PBMC [4]) | inhibition (Danio rerio [6]) | inhibition (Danio rerio [9]) | inhibition (HMEC-1 [10]) Dose-dependent effect | inhibition (Danio rerio [11]) Dose-dependent effect | inhibition (HMEC-1 [13]; Homo sapiens) Dose-dependent effect | Activity (HMEC-1 [14]) | inhibition (Danio rerio [15]) | inhibition (Danio rerio [18]) | Activity (HMEC-1 [19]) | inhibition (HMEC-1 [20]) Dose-dependent effect | inhibition (PBMC [21]) Dose-dependent effect | inhibition (Danio rerio [22]) | Activity (HMEC-1 [25])
76%: Activity (HMEC-1 [13])
2680 nM: IC50 (HMEC-1 [16])
67%: Activity (HMEC-1 [24])
Dose-dependent effect: inhibition (INH) [17]
946 nM: IC50 (HMEC-1 [8])
74%: Activity (HMEC-1 [7])
Non-toxic: Activity [5] | Activity (PBMC [12]) | Activity [17]
inactive: inhibition (Danio rerio [23])
